S=c1[nH]c2ccccc2s1
Conditions	solubility (mole fraction)
in 1,4-dioxane, 285.65 K	0.0438
in 1,4-dioxane, 288.15 K	0.0466
in 1,4-dioxane, 290.65 K	0.0502
in 1,4-dioxane, 293.15 K	0.0536
in 1,4-dioxane, 295.65 K	0.0574
in 1,4-dioxane, 298.15 K	0.0613
in 1,4-dioxane, 300.65 K	0.0652
in 1,4-dioxane, 303.15 K	0.0698
in 1,4-dioxane, 305.65 K	0.0742
in 1,4-dioxane, 308.15 K	0.079
in 1,4-dioxane, 310.65 K	0.0835
in 1,4-dioxane, 313.15 K	0.0893
in 1,4-dioxane, 315.65 K	0.0943
in 1,4-dioxane, 318.15 K	0.101
in 2-butanone, 273.15 K	0.0695
in 2-butanone, 275.65 K	0.0722
in 2-butanone, 278.15 K	0.0752
in 2-butanone, 280.65 K	0.0778
in 2-butanone, 283.15 K	0.0807
in 2-butanone, 285.65 K	0.0837
in 2-butanone, 288.15 K	0.0867
in 2-butanone, 290.65 K	0.0902
in 2-butanone, 293.15 K	0.093
in 2-butanone, 295.65 K	0.0967
in 2-butanone, 298.15 K	0.0995
in 2-butanone, 300.65 K	0.103
in 2-butanone, 303.15 K	0.106
in 2-butanone, 305.65 K	0.11
in 2-butanone, 308.15 K	0.113
in 2-butanone, 310.65 K	0.116
in 2-butanone, 313.15 K	0.12
in 2-butanone, 315.65 K	0.124
in 2-butanone, 318.15 K	0.128
in acetonitrile, 273.15 K	0.00426
in acetonitrile, 275.65 K	0.00467
in acetonitrile, 278.15 K	0.00507
in acetonitrile, 280.65 K	0.00553
in acetonitrile, 283.15 K	0.00597
in acetonitrile, 285.65 K	0.00647
in acetonitrile, 288.15 K	0.00705
in acetonitrile, 290.65 K	0.00762
in acetonitrile, 293.15 K	0.00819
in acetonitrile, 295.65 K	0.00885
in acetonitrile, 298.15 K	0.00956
in acetonitrile, 300.65 K	0.0102
in acetonitrile, 303.15 K	0.011
in acetonitrile, 305.65 K	0.0118
in acetonitrile, 308.15 K	0.0127
in acetonitrile, 310.65 K	0.0137
in acetonitrile, 313.15 K	0.0146
in acetonitrile, 315.65 K	0.0155
in acetonitrile, 318.15 K	0.0167
in chloroform, 273.15 K	0.00683
in chloroform, 275.65 K	0.0072
in chloroform, 278.15 K	0.00766
in chloroform, 280.65 K	0.00816
in chloroform, 283.15 K	0.00865
in chloroform, 285.65 K	0.00922
in chloroform, 288.15 K	0.00972
in chloroform, 290.65 K	0.0104
in chloroform, 293.15 K	0.0109
in chloroform, 295.65 K	0.0115
in chloroform, 298.15 K	0.0121
in chloroform, 300.65 K	0.0128
in chloroform, 303.15 K	0.0135
in chloroform, 305.65 K	0.0142
in chloroform, 308.15 K	0.0149
in chloroform, 310.65 K	0.0156
in chloroform, 313.15 K	0.0165
in chloroform, 315.65 K	0.0172
in chloroform, 318.15 K	0.0182
in ethyl acetate, 273.15 K	0.0274
in ethyl acetate, 275.65 K	0.0286
in ethyl acetate, 278.15 K	0.0297
in ethyl acetate, 280.65 K	0.0309
in ethyl acetate, 283.15 K	0.0323
in ethyl acetate, 285.65 K	0.0336
in ethyl acetate, 288.15 K	0.0348
in ethyl acetate, 290.65 K	0.0361
in ethyl acetate, 293.15 K	0.0374
in ethyl acetate, 295.65 K	0.0389
in ethyl acetate, 298.15 K	0.0403
in ethyl acetate, 300.65 K	0.0419
in ethyl acetate, 303.15 K	0.0434
in ethyl acetate, 305.65 K	0.0448
in ethyl acetate, 308.15 K	0.0465
in ethyl acetate, 310.65 K	0.0482
in ethyl acetate, 313.15 K	0.0499
in ethyl acetate, 315.65 K	0.0513
in ethyl acetate, 318.15 K	0.0532
in isobutanol, 273.15 K	0.0101
in isobutanol, 275.65 K	0.011
in isobutanol, 278.15 K	0.012
in isobutanol, 280.65 K	0.0132
in isobutanol, 283.15 K	0.0143
in isobutanol, 285.65 K	0.0155
in isobutanol, 288.15 K	0.0169
in isobutanol, 290.65 K	0.0184
in isobutanol, 293.15 K	0.0199
in isobutanol, 295.65 K	0.0215
in isobutanol, 298.15 K	0.0231
in isobutanol, 300.65 K	0.0252
in isobutanol, 303.15 K	0.027
in isobutanol, 305.65 K	0.0292
in isobutanol, 308.15 K	0.0311
in isobutanol, 310.65 K	0.0336
in isobutanol, 313.15 K	0.0361
in isobutanol, 315.65 K	0.0386
in isobutanol, 318.15 K	0.0411
in isopropanol, 273.15 K	0.00949
in isopropanol, 275.65 K	0.0103
in isopropanol, 278.15 K	0.0111
in isopropanol, 280.65 K	0.0122
in isopropanol, 283.15 K	0.0134
in isopropanol, 285.65 K	0.0148
in isopropanol, 288.15 K	0.0161
in isopropanol, 290.65 K	0.0175
in isopropanol, 293.15 K	0.0192
in isopropanol, 295.65 K	0.0208
in isopropanol, 298.15 K	0.0224
in isopropanol, 300.65 K	0.0242
in isopropanol, 303.15 K	0.0261
in isopropanol, 305.65 K	0.0282
in isopropanol, 308.15 K	0.0305
in isopropanol, 310.65 K	0.0328
in isopropanol, 313.15 K	0.0352
in isopropanol, 315.65 K	0.0378
in isopropanol, 318.15 K	0.0408
in methanol, 273.15 K	0.00733
in methanol, 275.65 K	0.00795
in methanol, 278.15 K	0.00868
in methanol, 280.65 K	0.00946
in methanol, 283.15 K	0.0103
in methanol, 285.65 K	0.0111
in methanol, 288.15 K	0.0121
in methanol, 290.65 K	0.0131
in methanol, 293.15 K	0.0141
in methanol, 295.65 K	0.0153
in methanol, 298.15 K	0.0164
in methanol, 300.65 K	0.0178
in methanol, 303.15 K	0.0192
in methanol, 305.65 K	0.0205
in methanol, 308.15 K	0.022
in methanol, 310.65 K	0.0235
in methanol, 313.15 K	0.0252
in methanol, 315.65 K	0.0269
in methanol, 318.15 K	0.0289
in n-butanol, 273.15 K	0.0198
in n-butanol, 275.65 K	0.0211
in n-butanol, 278.15 K	0.0224
in n-butanol, 280.65 K	0.0238
in n-butanol, 283.15 K	0.0252
in n-butanol, 285.65 K	0.0265
in n-butanol, 288.15 K	0.0281
in n-butanol, 290.65 K	0.0299
in n-butanol, 293.15 K	0.0314
in n-butanol, 295.65 K	0.0332
in n-butanol, 298.15 K	0.0349
in n-butanol, 300.65 K	0.0368
in n-butanol, 303.15 K	0.0386
in n-butanol, 305.65 K	0.0405
in n-butanol, 308.15 K	0.0425
in n-butanol, 310.65 K	0.045
in n-butanol, 313.15 K	0.0468
in n-butanol, 315.65 K	0.0489
in n-butanol, 318.15 K	0.0513
in n-propanol, 273.15 K	0.015
in n-propanol, 275.65 K	0.016
in n-propanol, 278.15 K	0.017
in n-propanol, 280.65 K	0.0181
in n-propanol, 283.15 K	0.0194
in n-propanol, 285.65 K	0.0205
in n-propanol, 288.15 K	0.0219
in n-propanol, 290.65 K	0.0232
in n-propanol, 293.15 K	0.0245
in n-propanol, 295.65 K	0.026
in n-propanol, 298.15 K	0.0277
in n-propanol, 300.65 K	0.029
in n-propanol, 303.15 K	0.0309
in n-propanol, 305.65 K	0.0324
in n-propanol, 308.15 K	0.0342
in n-propanol, 310.65 K	0.036
in n-propanol, 313.15 K	0.038
in n-propanol, 315.65 K	0.04
in n-propanol, 318.15 K	0.0421
in toluene, 273.15 K	0.00192
in toluene, 275.65 K	0.00205
in toluene, 278.15 K	0.0022
in toluene, 280.65 K	0.00236
in toluene, 283.15 K	0.00254
in toluene, 285.65 K	0.00272
in toluene, 288.15 K	0.0029
in toluene, 290.65 K	0.0031
in toluene, 293.15 K	0.00333
in toluene, 295.65 K	0.00354
in toluene, 298.15 K	0.00378
in toluene, 300.65 K	0.00405
in toluene, 303.15 K	0.00427
in toluene, 305.65 K	0.00454
in toluene, 308.15 K	0.00482
in toluene, 310.65 K	0.0051
in toluene, 313.15 K	0.00544
in toluene, 315.65 K	0.00572
in toluene, 318.15 K	0.00608

— BigSolDB 2.1
